Columns and labels:
HIV = HIV release from chronically infected cells (Biomek 1000); format: cell-based; conditions: for overall effect, in words: FIGS. 20-29; for inhibition of viral cell (HIV) release from infected cells, in words: FIGS. 6-19
From the text: (§1) A series of experiments and which are illustrated graphically in FIGS. 6 through 34, respectively, were designed to detect two extremes. In particular the tests were designed to detect the inhibition of viral release and/or the release of virus which has a reduced ability to infect other cells. This reduced ability to infect other cells is represented, for example, by glycosylation inhibitors, the direct effect on virus release is represented by acylation inhibitors, RT inhibitors and melittin (Seq. ID NO:1). The most important feature of this experimental design, however, is to detect the toxicity of melittin. The present experiments were carried out on both the astrocytoma cell line LC5-HIV (cloned infected cells) and T-lymphocytoma cell line KE37-1/IIIβ (cloned infected cells with HTLV-IIIβ). In both cases the results were essentially identical.
(§2) In the present series of experiments HIV release was tested by a fully automated laboratory robot system and which is manufactured by Beckman Instruments as the Biomek 1000. This system performed the following steps. First, chronically infected cells (cloned) are plated in microtiter plates and grown for a period of seven days. They are then challenged by melittin (Seq. ID NO:1) during this period either for the final day or throughout the period as shown in the figures. The number of living cells are quantified by MTT, that is by a metabolic (dehydrogenase) test. The MTT test is automatically performed. The toxic effect is detected at the time of the experiment and not in a separate control experiment. Furthermore, the supernatant, and which contains released virus cells from the period of time which elapsed from the last wash, and which may vary from 24 hours to 7 days, is collected from the culture, and an aliquot is saved for virus quantification by employing antigen or viral enzyme reverse transcriptase (RT). Furthermore, an aliquot is added to a culture of uninfected cells in microtiter plates for subsequent measurement of the ability of the virus cells to reinfect these uninfected cells. In this regard, the number of infected cells is automatically quantified by an immunoperoxidase staining technique. The test results, as shown, are expressed in terms of toxicity of the melittin (MTT test); the release of HIV from the primary culture (RT test); and the ability of the released virus to infect previously uninfected cells.

HIV-infected LC5 cells = assay: MTT toxicity/killing of HIV infected cells (Biomek 1000); format: cell-based, human
Method: The KE37-1 (uninfected) and KE37-1/111β (infected) cell lines discussed below are commercially available from the Dr. Robert Gallows Laboratory of the NIH in the United States of America and grown in a medium of RPMI 1640 (GIBCO) and further supplemented with 10% fetal calf serum which contained approximately 100 units of penicillin, 100 μg streptomycin, and approximately 0.25 μg fungizone (Amphotericin B) per milliliter. The human mesenchymal cell lines LC5 and LC5-HIV, discussed below, are deposited with the Collection De L'Institut Pasteur of Paris, France on Mar. 9, 1989 and given the accession numbers I-842 and I-843, respectively. The LC5 and LC5-HIV cell lines were grown in a medium of RPMI 1640 and supplemented with 10% fetal calf serum.
as §1, §2

Rausher leukemia virus = conditions: 2 weeks
Method: The size of the spleen is taken as a measure of the progress of the disease which eventually leads to the death of the infected animals.
The test of the antiviral effect of the melittin (Seq. ID NO:1) principle was carried out on Balb C mice (12 weeks old; all males). The animals were kept in numbers of 4 per cage. The animals were infected by Rausher leukemia virus (10^5 infectious particles (viruses) per animal in a volume of 0.2 ml) by intraperitoneal injection (ip) followed by subcutaneous injection of the test substance after 10 minutes. The animals were divided into two groups referred to as controls (receiving a sham injection of saline) or test animals (receiving the melittin analogue).
The peptide was dissolved as 100 μg/ml and the controls as well as the test animals were injected with the same volume subcutaneously (0.1 ml) of PBS or PBS+test substance respectively. The injection was carried out 10 minutes after injection of the infectious virus. After 2 days the animals received a new injection of melittin analogue (10 μg/mg body weight) or PBS as a subcutaneous injection of 0.100 ml. After 4 days from the first injection a third injection was performed using 20 μg/mg body weight of melittin analogue.

Row | Substance | overall effect, in words (HIV) | inhibition of viral cell (HIV) release from infected cells, in words (HIV) | inhibition of growth / survival of infected cells, in words (HIV-infected LC5 cells) | further results
1 | control peptide: HOLST peptide (negative control); no apparent structural similarity to melittin (FAESGVDTPVFNSY) [reference compound] | without effect | – | – | –
2 | Gly-Ile-Gly-Ala-Val-Leu-Lys-Val-Leu-Thr-Thr-Gly-Leu-Pro-Ala-Leu-Ile-Ser-Trp-Ile-Gly-Gly-Gly-Gly-Gly-Gly [melittin (1-20)-6-(Gly)-Amide] | – | inhibited HIV release | inhibited the growth of infected cells | animals with spleens greater than 150 mg but lower than 170 mg (borderline) (Rausher leukemia virus): 25%; infected animals that do not develop disease (Rausher leukemia virus): 75%; number of animals with pathological spleen (Rausher leukemia virus): one; spleen weight of the rest of the test group (Rausher leukemia virus): 100 to 150 mg
3 | MHC: MHC (Seq. ID NO:10), (MAJOR histocompatibility complex sequence) (VAAKANRVADEIRHKREKLE) [reference compound] | do not have any readily apparent effects | – | – | –
4 | melittin 1-20: melittin 1-20 (Seq. ID NO:7) lacks the cell binding part of the molecule | – | inhibited HIV release as did the natural melittin and melittin (1-20)-6-(Gly)-Amide | inhibited the growth of infected cells | –
5 | Melittin COOH: Melittin COOH was tested and appeared to be less efficient than the melittin amid | – | – | – | efficiency compared with melittin amid (HIV): less efficient than the melittin amid
6 | mastoparan [reference compound] | do not have any readily apparent effects | – | – | –

Source: patent publication US5770688A, “Method and composition for the treatment of mammalian HIV infection” (GSF-Forschungszentrum fur Umwelt und Gesundheit GmbH, priority 1989, dated 1998)
